Laboratory results reported in patent publication US10220025B1, “Self-emulsifying formulation of CARP-1 functional mimetics” (Florida A&M University, priority 2016, dated 2019).
Read-outs that look alike come from different tables or passages of the source.

What was measured:
[1] = system: Adriamycin-resistant (ADR-R) MDA-MB-468 sublines; assay: MTT viability assay, ADR-resistant MDA-MB-468 sublines; format: cell-based, human
Experimental: (§1) Human TNBC MDA-MB-468 and MDA-MB-231, and mouse TNBC 4T1 cells were cultured in the chronic presence (>10 months) of Doxorubicin. The parental, wild-type cells were initially treated with 200 nM Doxorubicin for 2-3 weeks, followed by escalation to 400 nM, 1 μM, and 2 μM doses over a period of 3-4 weeks for each dose till resistance developed and the cells became well adapted to growth in […] of Doxorubicin for their routine culture. In the case of Cisplatin however, the human TNBC MDA-MB-468 and MDA-MB-231 were initially cultured in continuous presence of 1 μM Cisplatin for 3-4 weeks, and the dose was escalated to 1.5 μM and 3 μM over periods of 3-4 weeks for each dose till resistance developed and cells became adapted to routine culture in 3 μM dose. Subsequent, routine maintenance of the resistant cells in the presence of the respective drug was continued and multiple, resistant sublines for each of the TNBC cells were isolated and characterized for their growth inhibitory (GI)50 dose of respective therapeutic by the MTT-based viability assays as below.

[2] = system: MDA-MB-231 TNBC cells, wild type; assay: MTT viability assay, parental MDA-MB-231; format: cell-based, human; conditions: Homo sapiens, MDA-MB-231; 72 h; Wild type
Experimental: (§2) In vitro inhibition of cell growth was assessed by MTT (3-[4, 5-dimethyltiazol-2-yl]-2.5-diphenyl tetrazolium bromide) reagent. Cells (5×10^3) were seeded in a 96-well culture plate and subsequently treated with respective agents at different concentrations as mentioned. Control cells were treated with 0.1% DMSO in culture medium. After treatment, the cells were incubated with 1 mg/ml of MTT reagent at 37° C. for 2-4 hours and then MTT was removed and 50 μL of DMSO was added, followed by colorimetric analysis using a multi-label plate reader at 560 nm (Victor3; PerkinElmer, Wellesley, Mass., USA).

[3] = system: CSC-enriched populations from xenografts of parental and ADR-resistant MDA-MB-231 TNBC cells; assay: MTT viability of tumor-derived CSC-enriched cells; format: cell-based, human; conditions: dose-dependent; FIG. 15C
Experimental: The CSC-enriched cells were then treated with ADR, CFM-4.16, or a combination of both for noted dose and time. The cell viabilities were determined by MTT-based assay as in FIGS. 3A-3C, and plotted relative to the MTT values for the respective untreated controls. The histogram columns in panels B and C represent means of three and four independent experiments, respectively; bars, S.E. α, αα, β, ββ, ^*,**,#,##p=<0.03 relative to respective cells treated with ADR+CFM-4.16.
The TNBC cells were obtained from tumors derived from parental and drug-resistant cells or from a two-dimensional culture plate with ˜70-80% confluence. The cells were washed twice in 1×PBS and trypsinized following established protocols. […]
It was next clarified whether and to the extent CFM-4.16 was able to interfere with growth of mammospheres derived from parental and drug-resistant TNBC-cells. […] The growing mammosphere cultures were then exposed to CFM-4.16, and the viabilities of untreated and treated cultures were determined by an MTT-based assay. […]

[4] = system: Adriamycin-resistant (ADR-R) 4T1 sublines; assay: MTT viability assay, ADR-resistant 4T1 sublines; format: cell-based; conditions: Mus musculus; 72 h; ADR-R Clones 1-6
Experimental: Human TNBC MDA-MB-468 and MDA-MB-231, and mouse TNBC 4T1 cells were cultured in the chronic presence (>10 months) of Doxorubicin. The parental, wild-type cells were initially treated with 200 nM Doxorubicin for 2-3 weeks, followed by escalation to 400 nM, 1 μM, and 2 μM doses over a period of 3-4 weeks for each dose till resistance developed and the cells became well adapted to growth in 1 μM dose of Doxorubicin for their routine culture. […] Subsequent, routine maintenance of the resistant cells in the presence of the respective drug was continued and multiple, resistant sublines for each of the TNBC cells were isolated and characterized for their growth inhibitory (GI)50 dose of respective therapeutic by the MTT-based viability assays as below.
as §2

[5] = system: Adriamycin-resistant (ADR-R) MDA-MB-231 sublines; assay: MTT viability assay, ADR-resistant MDA-MB-231 sublines; format: cell-based; conditions: Homo sapiens, 72 h, ADR-R Clones 1-6
Experimental: as §1

[6] = system: MDA-MB-468 TNBC cells, wild type; assay: MTT viability assay, parental MDA-MB-468; format: cell-based, human; conditions: Homo sapiens, MDA-MB-468; 72 h; Wild type
Experimental: as §2

[7] = system: 4T1 TNBC cells, wild type; assay: MTT viability assay, parental 4T1; format: cell-based, mouse; conditions: Mus musculus; 72 h; Wild type
Experimental: as §2

[8] = system: drug-resistant TNBC cells; assay: MTT viability assay, drug-resistant TNBC sublines (not singled out); format: cell-based; conditions: read-out: GI50 dose, doxorubicin-resistant TNBC cells
Experimental: as §1

TNBC cells = assay: MTT viability assay, parental TNBC cells (lines not singled out); format: cell-based
Experimental: as §2

COc1cccc2c1C(=O)c1c(O)c3c(c(O)c1C2=O)C[C@@](O)(C(=O)CO)C[C@@H]3O[C@H]1C[C@H](N)[C@H](O)[C@H](C)O1 [Adriamycin, Doxorubicin, reference compound]
GI50 dose higher than wild-type, parental counterparts ([1]; ADR-resistant MDA-MB-468 vs parental): ≥ 500 fold | GI50 ([1]; Homo sapiens, MDA-MB-468, 72 h, ADR-R Clones 1-6): ~10000 nM | GI50 [2]: < 100 nM | viabilities of CSC enriched TNBC cells vs untreated [3]: significant loss of viabilities | GI50 [4]: > 10000 nM | GI50 [5]: > 10000 nM | GI50 [6]: ~20 nM | GI50 [7]: ~100 nM | GI50 [8]: ≥ 10000 nM | GI50 (TNBC cells; 72 h treatment period, read-out: GI50 doses, both the parental TNBC cell lines): < 100 nM | GI50 (TNBC cells; read-out: GI50 dose, parental cells): 20 to 100 nM
